Measurements reported in patent publication US10106516B2, “PDE10 inhibitors and related compositions and methods” (Omeros Corporation, priority 2010, dated 2018).
pIC50, pKd: −log10 of the molar value.

Key:
C57BL/6 male mice [1] = assay: PCP-induced hyperactivity model of psychosis; format: in vivo; conditions: vs vehicle+PCP control
Description: (§1) Dosing of the compounds is by intraperitoneal (i.p.) injection or oral gavage (p.o.). Intraperitoneal injection is accomplished by restraining the animal, exposing the abdomen and inserting the needle just above the knees on the mouse's right side. Oral gavage is performed by restraining the animal in such a way that its head is tilted back and the esophagus is relatively straight. The gavage needle (20 G×1.5″, Cadence Science) is inserted into the mouth in line with the body and gently pushed along the esophagus and into the stomach. If resistance is encountered the needle is removed and reinserted.
Psychostimulant-induced hyperactivity is measured by injecting animals with PCP and monitoring the animals' activity levels in VersaMax chambers (Accuscan Instruments, Columbus, Ohio) measuring 40×40 cm. Locomotor activity is detected by photobeam breaks as the animal crosses each beam. The animal is placed in the center of the field and left undisturbed for 20 minutes to measure its spontaneous activity in a novel environment. Measurements used to assess locomotor activity include: horizontal activity, total distance traveled, vertical activity (rearing events—animal raises up on hindlimbs), rotation, stereotypy, and distance traveled in the center compared to total distance traveled (center:total distance ratio). The NMDA antagonist PCP induces a psychosis-like syndrome manifest as hyperactivity and increased stereotypic behavior. Known antipsychotics are able to reverse psychostimulant-induced hyperactivity and stereotypy.
(§2) C57BL/6 male mice were given either compound 1-1 or vehicle by intraperitoneal injection (FIG. 1) or oral gavage (FIG. 2). Twenty minutes (for i.p.) or forty minutes (for p.o.) later, they were injected with PCP (5 mg/kg, i.p.). Ten minutes later, the mice were placed in activity chambers and their locomotor activity in the horizontal dimension was monitored by infrared beam breaks for 20 min (5 consecutive 4-minute intervals (INT) as indicated).
as §2, with “2-1” for “1-1”, “3)” for “1)”, “4).” for “2).”, “40” for “forty”
as §2, with “11-1” for “1-1”, “injection. Five” for “injection (FIG. 1) or oral gavage (FIG. 2). Twenty”, “later” for “(for i.p.) or forty minutes (for p.o.) later,”

PDE10 [2] = molecular target: T1, PDE10 (Homo sapiens, UniProt Q9Y233); assay: PDE10 biochemical assay (two-step Thompson and Appleman method or SPA); conditions: PDE10 inhibition
T1 construct: made in house; host or cells: Sf9 insect cells (baculovirus)

C57BL/6 male mice [3] = assay: Conditioned avoidance response (CAR) model of psychosis; format: in vivo; conditions: 12 mg/kg oral gavage, 30 minutes before testing; vs vehicle
Description: as §1
Conditioned avoidance response (CAR) is a behavioral test to evaluate the antipsychotic effect of a test compound. It utilizes a shuttle box (Med Associates, St. Albans, Vt.) with two identical chambers separated by a retractable door. Each chamber is fitted with a metal grid floor that is capable of delivering electric shocks independently. A computer program is used to implement the testing paradigm as well as record the animal's movement between the two chambers through infrared beam sensors. The testing paradigm is as follows. A mouse is placed into one chamber. A light (conditioned stimulus, CS) comes on. Five seconds later, mild electric shocks (0.4 mA; (unconditioned stimulus, US) are delivered to the chamber where the mouse is located (as detected by infrared beams) until the mouse escapes to the adjacent chamber or until 10 sec has elapsed. The US and CS always co-terminate. With randomized inter-trial intervals averaging 15 sec, 30 such CS-US pairing trials are given to each mouse each day. For each trial, an escape response is registered if the mouse crosses to the other chamber after being shocked (i.e., during the 10-sec US period), and an avoidance response is registered if the mouse crosses to the other chamber during the first 5-sec CS only period. The animals are trained in this paradigm for 30-40 days, during which the average percentage of avoidance responses will improve to 80-90%. […] These trained animals are then used for compound testing with the same paradigm.
C57BL/6 male mice were trained in the CAR paradigm to predict and avoid the noxious stimulus (foot shock), reaching a plateau of approximately 25 avoidance responses per 30 trials each day. […] Vehicle treatment and compound treatment were given to the same animals on alternating days, and the effect of compound in reducing avoidance response was analyzed through within-subject comparison (paired t-test).
C57BL/6 male mice were trained in the CAR paradigm to predict and avoid the noxious stimulus (foot shock), reaching a plateau of approximately 25-28 avoidance responses per 30 trials (“training plateau”) each day. […] Vehicle treatment and compound treatment were given to the same animals on alternating days, and the effect of compound in reducing avoidance response was analyzed through within-subject comparison (paired t-test).

PDE10 [4] = conditions: Soderling and Beavo 2000, read-out: IC50 (50% inhibitory concentration); cited from earlier work
PDE10 [5] = conditions: PDE10, in vitro binding studies; read-out: dissociation constant (Kd) for cGMP binding; cited from earlier work

T1 sequence (Q9Y233 1-779 isoform Q9Y233-1): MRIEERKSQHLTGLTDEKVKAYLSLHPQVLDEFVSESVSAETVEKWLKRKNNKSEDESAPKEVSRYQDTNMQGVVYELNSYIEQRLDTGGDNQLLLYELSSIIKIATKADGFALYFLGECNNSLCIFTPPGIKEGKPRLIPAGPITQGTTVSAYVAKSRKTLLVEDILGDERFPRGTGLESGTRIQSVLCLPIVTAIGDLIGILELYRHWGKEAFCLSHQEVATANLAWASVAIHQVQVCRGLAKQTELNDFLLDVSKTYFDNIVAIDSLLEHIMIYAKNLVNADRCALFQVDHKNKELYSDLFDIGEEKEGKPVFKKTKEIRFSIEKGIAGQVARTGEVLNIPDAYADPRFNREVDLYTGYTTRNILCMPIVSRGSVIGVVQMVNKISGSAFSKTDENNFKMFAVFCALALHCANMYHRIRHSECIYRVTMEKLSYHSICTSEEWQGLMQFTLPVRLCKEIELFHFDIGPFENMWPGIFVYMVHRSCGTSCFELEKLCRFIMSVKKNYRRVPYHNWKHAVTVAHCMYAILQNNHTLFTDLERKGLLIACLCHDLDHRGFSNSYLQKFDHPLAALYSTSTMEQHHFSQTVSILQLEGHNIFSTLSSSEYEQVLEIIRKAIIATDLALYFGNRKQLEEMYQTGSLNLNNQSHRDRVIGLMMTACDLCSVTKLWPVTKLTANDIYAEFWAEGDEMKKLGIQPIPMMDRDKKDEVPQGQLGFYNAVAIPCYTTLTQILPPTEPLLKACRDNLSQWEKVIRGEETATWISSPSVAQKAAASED

SMILES: COc1cc(-c2coc(C(=O)C(OC)c3ccc(N4CCOCC4)cc3)n2)cc(OC)c1Br (centres unmarked) [Compound 2-1, 1-(4-(4-Bromo-3,5-Dimethoxyphenyl)Oxazol-2-Yl)-2-Methoxy-2-(4-Morpholinophenyl)-Ethanone]
- reduction of PCP-induced hyperactivity (horizontal locomotor activity) (C57BL/6 male mice [1]; 10 mg/kg i.p., 20 min before PCP (5 mg/kg, i.p.)): significantly reduces
- reduction of PCP-induced hyperactivity (horizontal locomotor activity) (C57BL/6 male mice [1]; 10 mg/kg oral gavage, 40 min before PCP (5 mg/kg, i.p.)): effective
- pIC50 (PDE10 [2]): ≥ 6.00
- reduction of number of avoidance responses (CAR) (C57BL/6 male mice [3]): significantly reduces

SMILES: COc1cc(-c2coc(C(=O)C(OC)c3ccc(-c4nnc(C)o4)cc3)n2)cc(OC)c1Br (centres unmarked) [Compound 11-1, 1-(4-(4-Bromo-3,5-Dimethoxyphenyl)Oxazol-2-Yl)-2-Methoxy-2-(4-(5-Methyl-1,3,4-Oxadiazol-2-Yl)Phenyl)Ethanone]
- reduction of PCP-induced hyperactivity (horizontal locomotor activity) (C57BL/6 male mice [1]; 10 mg/kg i.p., 5 min before PCP (5 mg/kg, i.p.)): significantly reduces
- pIC50 (PDE10 [2]): ≥ 6.00

SMILES: CC(C)Cn1c(=O)n(C)c(=O)c2[nH]cnc21 [IBMX]
- pIC50 (PDE10 [4]): 5.59

SMILES: Nc1nc2c(ncn2[C@@H]2O[C@@H]3COP(=O)(O)O[C@H]3[C@H]2O)c(=O)[nH]1 [cGMP]
- pKd (PDE10 [5]): < 5.05
